Biological target: Inositol-trisphosphate 3-kinase A (Rattus norvegicus, UniProt P17105)
Test: Binding affinity against recombinant plasmid rat brain IP3K by overexpressing in Escherichia coli

Chain of Inositol-trisphosphate 3-kinase A (P17105 whole entry): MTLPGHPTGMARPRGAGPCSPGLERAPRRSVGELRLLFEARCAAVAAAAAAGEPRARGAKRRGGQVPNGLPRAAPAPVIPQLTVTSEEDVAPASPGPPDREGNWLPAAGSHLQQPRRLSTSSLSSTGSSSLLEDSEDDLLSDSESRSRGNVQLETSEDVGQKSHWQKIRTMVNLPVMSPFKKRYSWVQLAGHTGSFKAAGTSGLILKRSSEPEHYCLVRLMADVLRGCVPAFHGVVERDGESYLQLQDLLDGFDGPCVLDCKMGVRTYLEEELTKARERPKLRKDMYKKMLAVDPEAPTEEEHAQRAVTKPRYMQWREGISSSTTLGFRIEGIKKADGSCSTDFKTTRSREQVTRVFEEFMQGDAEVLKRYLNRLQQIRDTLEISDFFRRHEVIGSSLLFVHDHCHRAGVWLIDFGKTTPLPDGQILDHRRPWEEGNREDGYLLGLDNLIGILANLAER

| Structure (SMILES) | IC50 |
| --- | --- |
| O=P(O)(O)O[C@H]1[C@H](O)[C@@H](OP(=O)(O)O)[C@H](OP(=O)(O)O)[C@@H](OP(=O)(O)O)[C@H]1O | 27.8 µM |
| O=P(O)(O)O[C@H]1[C@H](OP(=O)(O)O)[C@H](O)[C@H](O)[C@@H](O)[C@@H]1OP(=O)(O)O | 27.4 µM |
| O=P(O)(O)O[C@H]1[C@H](OP(=O)(O)O)[C@H](OP(=O)(O)O)[C@H](O)[C@@H](O)[C@H]1OP(=O)(O)O | > 100 µM |
| O=P(O)(O)O[C@H]1[C@@H](O)[C@@H](OP(=O)(O)O)[C@H](OP(=O)(O)O)[C@@H](OP(=O)(O)O)[C@@H]1O | 39.4 µM |
| O=P(O)(O)O[C@H]1[C@H](O)[C@@H](OP(=O)(O)O)[C@H](O)[C@@H](OP(=O)(O)O)[C@H]1O | 90 µM |
| O=P(O)(O)O[C@H]1[C@H](OP(=O)(O)O)[C@@H](OP(=O)(O)O)[C@H](O)[C@@H](O)[C@H]1OP(=O)(O)O | > 100 µM |
| O=P(O)(O)O[C@@H]1[C@H](O)[C@H](O)[C@@H](OP(=O)(O)O)[C@H](OP(=O)(O)O)[C@H]1O (stereo in doubt; form 1) [INS(1,4,5)P3] | 2.6 µM |
| O=P(O)(O)O[C@@H]1[C@H](O)[C@H](O)[C@@H](OP(=O)(O)O)[C@H](OP(=O)(O)O)[C@H]1O (stereo in doubt; form 2) [INS(1,4,5)P3] | 6.3 µM |
| O=P(O)(O)O[C@@H]1[C@H](O)[C@H](O)[C@@H](OP(=O)(O)O)[C@H](OP(=O)(O)O)[C@H]1O (stereo in doubt; form 3) [INS(1,4,5)P3] | 43.7 µM |
